The values below come from ChEMBL document CHEMBL1140659, “Respiratory syncytial virus fusion inhibitors. Part 5: Optimization of benzimidazole substitution patterns towards derivatives with improved activity” (Bioorg Med Chem Lett, 2007).

Each structure is given as a SMILES string.

The nature of data set [1]: Cytotoxicity against human HEp2 cells. In kind it is cell-based, HEp-2.
Data set [2] concerns Respiratory syncytial virus. As to the kind of experiment: Antiviral activity against RSV long A with F1 protein K394R mutation in HEp2 cells. The data set is classed as functional, organism-based.
A short description of data set [3]: Therapeutic index, ratio of CC50 for HEp2 to EC50 for RSV long A. To be noted: human, HEp2 cells; read-out: Ratio CC50/EC50.

Turning to `CC(C)CCn1c(Cn2c(=O)n(C(C)C)c3ccccc32)nc2c(CCN)cccc21`, the cytotoxic concentration (CC50) in data set [1] came out at 3.92 µM. Besides, a half-maximal effect in data set [2] (EC50) was put at 0.23 µM. The selectivity ratio in data set [3] was determined as 17.
`CC(C)CCn1c(Cn2c(=O)n(C(C)C)c3ccccc32)nc2c(CCCN)cccc21` yielded a CC50 in data set [1] of 2.34 µM. For the same compound, a half-maximal response in data set [2] (EC50) required 213 µM. For the same compound, the selectivity ratio in data set [3] was determined as 0.011.
As for `CC(=O)c1ccc2c(c1)nc(Cn1c(=O)n(C)c3ccccc31)n2CCC(C)C`, it took 5.2 µM to reach half-maximal cytotoxicity in data set [1] (CC50). This compound gave an EC50 in data set [2] of 0.193 µM. Also, in data set [3], the selectivity ratio amounted to 39.8.
The corresponding values for `CC(C)CCn1c(Cn2c(=O)n(C(C)C)c3ccccc32)nc2cc(C(N)=O)ccc21` are 23.4 µM, 0.166 µM and 141.
The corresponding values for `CC(C)CCn1c(Cn2c(=O)n(C(C)C)c3ccccc32)nc2cc(C(=O)N(C)C)ccc21` are 25.6 µM, 24.8 µM and 1.03.
`CC(C)CCn1c(Cn2c(=O)n(CC(=O)OC(C)(C)C)c3ccccc32)nc2cc(C(=N)N)ccc21` registered a half-maximal cytotoxic concentration (CC50) in data set [1] of 7.9 µM. The EC50 in data set [2] was 0.009 µM. The selectivity ratio in data set [3] worked out at 878.
As to `CC(C)CCn1c(Cn2c(=O)n(C(C)C)c3ccccc32)nc2cc(N)ccc21`, in data set [1], the CC50 came out at 32.2 µM. In addition, the concentration giving a half-maximal response (EC50) in data set [2] was found to be 0.125 µM. Further, the selectivity ratio in data set [3] was 258.
The corresponding values for `COCc1cccc2c1nc(Cn1c(=O)n(C(C)C)c3ccccc31)n2CCC(C)C` are 26.7 µM, 7.5 µM and 3.56.
As to `COC(=O)c1cccc2c1nc(Cn1c(=O)n(C(C)C)c3ccccc31)n2CCC(C)C`, the midpoint of cytotoxicity in data set [1], the CC50, lay at 49.2 µM. In data set [2], this compound registered an EC50 of 230 µM. Moreover, in data set [3], the selectivity ratio turned out to be 0.213.
The corresponding values for `CC(C)CCn1c(Cn2c(=O)n(C(C)C)c3ccccc32)nc2c(CC#N)cccc21` are 116 µM, 241 µM and 0.482.
For `CC(C)CCn1c(Cn2c(=O)n(C(C)C)c3ccccc32)nc2cc(Br)ccc21`, half-maximal cytotoxicity in data set [1] (CC50) was put at 18.1 µM. The concentration for a half-maximal effect (EC50) in data set [2] was determined as 0.018 µM. In addition, the selectivity ratio in data set [3] is 1010.
Compound `CC(C)CCn1c(Cn2c(=O)n(C(C)C)c3ccccc32)nc2cc(C#N)ccc21` returned a 50% cytotoxic concentration (CC50) in data set [1] of 7.93 µM. In data set [2], this compound yielded a half-maximal effective concentration (EC50) of 0.476 µM. In addition, in data set [3], the selectivity ratio is 16.6.
Turning to `CCc1ccc2c(c1)nc(Cn1c(=O)n(C(C)C)c3ccccc31)n2CCC(C)C`, it took 18.5 µM to reach half-maximal cytotoxicity in data set [1] (CC50). Moreover, a half-maximal effect in data set [2] (EC50) was put at 0.692 µM. Also, the selectivity ratio in data set [3] amounted to 26.8.
`CC(C)CCn1c(Cn2c(=O)n(C(C)C)c3ccccc32)nc2cc(-c3ncon3)ccc21` returned a CC50 in data set [1] of 223 µM. Moreover, the EC50 in data set [2] stood at 21.6 µM. Moreover, the selectivity ratio in data set [3] turned out to be 10.3.
Consider `CC(C)CCn1c(Cn2c(=O)n(C(C)C)c3ccccc32)nc2cc(CN)ccc21`, for which, in data set [1], half-maximal cytotoxicity (CC50) was put at 3.92 µM. This compound also had an EC50 in data set [2] of 0.002 µM. In addition, in data set [3], the selectivity ratio is 1960.
Turning to `CNCc1ccc2c(c1)nc(Cn1c(=O)n(C(C)C)c3ccccc31)n2CCC(C)C`, it took 1.48 µM to reach half-maximal cytotoxicity in data set [1] (CC50). In data set [2], this compound came in with an EC50 of 0.057 µM. Besides, the selectivity ratio in data set [3] worked out at 26.
Taken in the same sequence, the figures for `CC(C)CCn1c(Cn2c(=O)n(C(C)C)c3ccccc32)nc2cc(CNC3CC3)ccc21` were 17.2 µM, 0.363 µM and 47.3.
Regarding `CC(C)CCn1c(Cn2c(=O)n(CC(=O)OC(C)(C)C)c3ccccc32)nc2cc(C#N)ccc21`, the midpoint of cytotoxicity in data set [1], the CC50, lay at 32.2 µM. The same compound displayed an EC50 in data set [2] of 2.55 µM. The selectivity ratio in data set [3] was 12.6.
In the case of `CC(C)CCn1c(Cn2c(=O)n(C(C)C)c3ccccc32)nc2cc(CC#N)ccc21`, the midpoint of cytotoxicity in data set [1], the CC50, lay at 13.3 µM. This compound showed a half-maximal effective concentration (EC50) in data set [2] of 0.117 µM. Further, the selectivity ratio in data set [3] is 114.
In data set [1], `C=C(C)n1c(=O)n(Cc2nc3cc(C(=O)O)ccc3n2CCC(C)C)c2ccccc21` yielded a cytotoxic concentration (CC50) of 30 µM. Besides, the midpoint of the response in data set [2], the EC50, lay at 264 µM. For the same compound, the selectivity ratio in data set [3] is 0.11.
Take `CC(C)CCn1c(Cn2c(=O)n(C(C)C)c3ccccc32)nc2cc(C(=O)O)ccc21`: it took 17.3 µM to reach half-maximal cytotoxicity in data set [1] (CC50). Also, in data set [2], the EC50 is 238 µM. The selectivity ratio in data set [3] was 0.07.
The corresponding values for `CC(C)CCn1c(Cn2c(=O)n(C(C)C)c3ccccc32)nc2cc(-c3nn[nH]n3)ccc21` are 2 µM, 225 µM and 0.009.
Take `CC(=O)NCc1ccc2c(c1)nc(Cn1c(=O)n(C(C)C)c3ccccc31)n2CCC(C)C`: the cytotoxic concentration (CC50) in data set [1] worked out at 178 µM. The same compound yielded a concentration for a half-maximal effect (EC50) in data set [2] of 0.631 µM. In data set [3], the selectivity ratio is 282.
Compound `CC(C)CCn1c(Cn2c(=O)n(C(C)C)c3ccccc32)nc2cc(CNS(C)(=O)=O)ccc21` had a CC50 in data set [1] of 30.8 µM. This compound also displayed an EC50 in data set [2] of 0.725 µM. Moreover, the selectivity ratio in data set [3] turned out to be 42.4.
Take `CC(C)CCn1c(Cn2c(=O)n(C(C)C)c3ccccc32)nc2cc(C(C)(C)N)ccc21`: the half-maximal cytotoxic concentration (CC50) in data set [1] stood at 3.27 µM. In data set [2], the 50% effective concentration (EC50) was found to be 0.694 µM. Further, in data set [3], the selectivity ratio turned out to be 4.71.
`CC(C)CCn1c(Cn2c(=O)n(C(C)C)c3ccccc32)nc2cc(CCN)ccc21` had a CC50 in data set [1] of 11 µM. In data set [2], the EC50 was 4.33 µM. Moreover, the selectivity ratio in data set [3] was 2.54.
Taken in the same sequence, the figures for `CC(C)CCn1c(Cn2c(=O)n(C(C)C)c3ccccc32)nc2cc(CN(C)C)ccc21` were 5.65 µM, 183 µM and 0.031.
Compound `C=C(C)n1c(=O)n(Cc2nc3cc(C(=N)N)ccc3n2CCC(C)C)c2ccccc21` returned a cytotoxic concentration (CC50) in data set [1] of 10.8 µM. Besides, the midpoint of the response in data set [2], the EC50, lay at 0.004 µM. For the same compound, the selectivity ratio in data set [3] worked out at 2700.
Regarding `C=C(C)n1c(=O)n(Cc2nc3cc(C#N)ccc3n2CCC(C)C)c2ccccc21`, in data set [1], the half-maximal cytotoxic concentration (CC50) was 1.48 µM. This compound returned a concentration for a half-maximal effect (EC50) in data set [2] of 0.057 µM. Also, the selectivity ratio in data set [3] stood at 26.
Regarding `C=C(C)n1c(=O)n(Cc2nc3cc(C(C)=O)ccc3n2CCC(C)C)c2ccccc21`, in data set [1], the CC50 was 0.74 µM. In data set [2], this compound had an EC50 of 0.179 µM. The selectivity ratio in data set [3] came out at 4.1.
The corresponding values for `C=Cc1ccc2c(c1)nc(Cn1c(=O)n(C(C)C)c3ccccc31)n2CCC(C)C` are 6.52 µM, 0.63 µM and 10.3.
Compound `CC(C)CCn1c(Cn2c(=O)n(C)c3ccccc32)nc2cc(-c3nnn(C)n3)ccc21` showed a CC50 in data set [1] of 2.97 µM. For the same compound, the response in data set [2] was half-maximal at 239 µM (EC50). Moreover, the selectivity ratio in data set [3] amounted to 0.012.
The compound `COC(=O)c1ccc2c(c1)nc(Cn1c(=O)n(C(C)C)c3ccccc31)n2CCC(C)C` came in with a 50% cytotoxic concentration (CC50) in data set [1] of 33.7 µM. Further, in data set [2], the EC50 was found to be 230 µM. Moreover, the selectivity ratio in data set [3] worked out at 0.15.
Taken in the same sequence, the figures for `CC(C)CCn1c(Cn2c(=O)n(C(C)C)c3ccccc32)nc2c(CO)cccc21` were 22 µM, 0.82 µM and 26.8.
The corresponding values for `CC(C)CCn1c(Cn2c(=O)n(C(C)C)c3ccccc32)nc2c(CCC#N)cccc21` are 2.24 µM, 234 µM and 0.096.
The corresponding values for `CC(C)CCn1c(Cn2c(=O)n(C(C)C)c3ccccc32)nc2c(CN)cccc21` are 7 µM, 0.715 µM and 9.78.

One may read the CC50 as the concentration at which the toxic effect on the cells reaches its halfway point. Broadly, the EC50 is the concentration needed to bring the measured effect to its halfway point.
